Assay results reported in patent US20060167115A1, “Compositions for the preservation of timber” (priority 2003, published 2006).

Key:
Coniophora puteana = test: Biological efficacy test (EN 113), agar medium; type: cell-based
Source text: (§1) Two fungi were used: Coniophora puteana Brown rot fungus) and Poria placenta (Brown rot fungus). The preservative used was TBBA (waterborne). Seven concentrations of the preservative was used: 3.0%, 2.0%, 1.5%, 1.0%, 0.5%, 0.05%, and 0.0% (w/w), i.e. the carrier solution in the absence of the active material. All wood blocks were of Scots pine sapwood (Pinus sylvestris) with an approximate volume of 18.75 cm^3 (50 mm×25 mm×15 mm) in accordance with European standard EN 113. • Treated test specimens: 2 (fungi)×7 (preservative concentrations)×1 (preservative)×4 (replicates)=56 test blocks • Untreated test specimens (for exposure alongside treated blocks): 2 (fungi)×7 (preservative concentrations)×1 (preservative)×4 (replicates)=56 test blocks • Untreated test specimens (virulence): 2 (fungi)×6 (replicates)=12 test blocks • Treated check test specimens: 4 (replicates)×7 (preservative concentrations)×1 (preservative)=28 test blocks
(§2) After block impregnation, according to European standard EN 113, and conditioning were completed, all the blocks were sterilized using ionizing radiation according to the conditions set out in EN 113. The incubation period for the test (length of block exposure to the chosen basidiomycete fungi) was 16 weeks.
(§3) It was noted that some waterlogging of certain test and control specimens had occurred. In keeping with the EN 113 format, weight changes for particular waterlogged specimens, when these are clearly unrepresentative of a group, were not included in the mean figures presented. In addition, weight losses of unrepresentative specimens generally, were not included in the mean figures presented.

Poria placenta [1] = test: Biological efficacy test (EN 113), agar medium; type: cell-based
Source text: as §1, §2, §3

Neo-Lentinus lepideus = test: Biological efficacy test (ASTM D1413-76), soil block medium; type: cell-based
Method: (§4) The following fungi were tested: Neo-Lentinus lepideus (Brown rot fungus), Poria placenta (Brown rot fungus) and Gloeophyllum trabeum (Brown rot fungus). The preservative used was TBBA (waterborne). Seven concentrations of the preservative was used: 3.0%, 2.0%, 1.5%, 1.0%, 0.5%, 0.05% and 0.0% (w/w), i.e. the carrier solution in the absence of the preservative. All wood blocks were of Scots pine sapwood (Pinus sylvestris) with an approximate volume of 6.86 cm^3 (19 mm×19 mm×19 mm). All wood block specimens, where applicable, were vacuum impregnated with the preservative concentrations according to American standard ASTM D1413-76. • Treated test specimens: 3 (fungi)×7 (preservative concentrations)×1 (preservative)×8 (replicates)=168 test blocks • Untreated test specimens (control): 3 (fungi)×1 (preservative)×4 (replicates)=12 test blocks
(§5) After block treatments were completed, all the blocks were sterilized using ionizing radiation according to the conditions set out in American standard ASTM D1413-76. The incubation period for the test was 12 weeks.

Gloeophyllum trabeum = test: as above; type: cell-based
Method: as §4, §5

Poria placenta [2] = test: as above; type: cell-based
Method: as §4, §5

wood decay = test: Wood decay field stake test (modified AWPA E7-01), ground contact; details: TBBA added to ethanol, over all concentrations; groups of 10 stakes; seven months in ground
Method: The preservative value of TBBA in terms of preventing wood decay was examined by ground contact exposure of TBBA treated stakes at a test plot in Gainesville, Fla. The test detail was essentially based on the “STANDARD METHOD OF EVALUATING WOOD PRESERVATIVES BY FIELD TESTS WITH STAKES”, Standard E7-01, promulgated by the American Wood Preservers Association (AWPA).
All the test stakes were of southern pine sapwood and were vacuum impregnated with TBBA. The TBBA was dissolved in one of four solutions: ethanol, P9 type A oil, and in two micro-emulsions: • emulsion #1: TBBA 20.81%, Butyl Lactate 31.02%, NP-15 22.33% and water 25.83% • emulsion #2: TBBA 20.05%, Butyl Lactate 29.88%, NP-15 21.51% and water 28.55%
Each of the emulsions was diluted so that the corresponding concentration (w/v) of TBBA in all of the solutions was: 1.72%, 3.4%, 5.1%, 6.8% and 8.5%.
Two groups of control stakes were also installed in the test plot. One group was vacuum impregnated with pure ethanol. The second group was untreated.
The groups of stakes for each treatment were installed in the test plot, left for seven months, and evaluated according to the procedure set-out in AWPA Standard E7-01. […]

[3] = TBBA waterborne 0.5% w/w, retention 3.86 kg/m^3, 12 weeks
[4] = TBBA waterborne 0.05% w/w, retention 0.38 kg/m^3, 12 weeks

CC(C)(c1cc(Br)c(O)c(Br)c1)c1cc(Br)c(O)c(Br)c1 [TBBA, Tetrabromobisphenol A]
Corrected mean loss in mass (%) (Coniophora puteana; TBBA waterborne 0.05% w/w, retention 0.39 kg/m^3, 16 weeks): 46.82 (6.31) %
Corrected mean loss in mass (%) (Coniophora puteana; TBBA waterborne 0.5% w/w, retention 3.78 kg/m^3, 16 weeks): 34.87 (13.21) %
Corrected mean loss in mass (%) (Coniophora puteana; TBBA waterborne 1.0% w/w, retention 7.30 kg/m^3, 16 weeks): 37.27 (—) %
Corrected mean loss in mass (%) (Coniophora puteana; TBBA waterborne 1.5% w/w, retention 11.12 kg/m^3, 16 weeks): −1.30 (1.16) %
Corrected mean loss in mass (%) (Coniophora puteana; TBBA waterborne 2.0% w/w, retention 15.24 kg/m^3, 16 weeks): −6.79 (0.34) %
Corrected mean loss in mass (%) (Coniophora puteana; TBBA waterborne 3.0% w/w, retention 23.65 kg/m^3, 16 weeks): −1.06 (0.69) %
Corrected mean loss in mass (%) (Poria placenta [1]; TBBA waterborne 0.05% w/w, retention 0.25 kg/m^3, 16 weeks): 30.94 (2.90) %
Corrected mean loss in mass (%) (Poria placenta [1]; TBBA waterborne 0.5% w/w, retention 3.79 kg/m^3, 16 weeks): 7.94 (19.35) %
Corrected mean loss in mass (%) (Poria placenta [1]; TBBA waterborne 1.0% w/w, retention 7.71 kg/m^3, 16 weeks): 6.17 (14.50) %
Corrected mean loss in mass (%) (Poria placenta [1]; TBBA waterborne 1.5% w/w, retention 11.81 kg/m^3, 16 weeks): −2.19 (070) %
Corrected mean loss in mass (%) (Poria placenta [1]; TBBA waterborne 2.0% w/w, retention 12.84 kg/m^3, 16 weeks): −6.21 (0.44) %
Corrected mean loss in mass (%) (Poria placenta [1]; TBBA waterborne 3.0% w/w, retention 20.70 kg/m^3, 16 weeks): −1.67 (0.22) %
Corrected mean loss in mass (%) (Neo-Lentinus lepideus; TBBA waterborne 0.05% w/w, retention 0.40 kg/m^3, 12 weeks): 31.44 (5.65) %
Corrected mean loss in mass (%) (Neo-Lentinus lepideus; [3]): 4.55 (16.26) %
Corrected mean loss in mass (%) (Neo-Lentinus lepideus; TBBA waterborne 1.0% w/w, retention 7.62 kg/m^3, 12 weeks): 0.36 (0.19) %
Corrected mean loss in mass (%) (Neo-Lentinus lepideus; TBBA waterborne 1.5% w/w, retention 11.61 kg/m^3, 12 weeks): 0.04 (0.09) %
Corrected mean loss in mass (%) (Neo-Lentinus lepideus; TBBA waterborne 2.0% w/w, retention 15.51 kg/m^3, 12 weeks): 0.04 (0.20) %
Corrected mean loss in mass (%) (Neo-Lentinus lepideus; TBBA waterborne 3.0% w/w, retention 23.79 kg/m^3, 12 weeks): 0.11 (0.38) %
Corrected mean loss in mass (%) (Gloeophyllum trabeum; [4]): 42.71 (13.14) %
Corrected mean loss in mass (%) (Gloeophyllum trabeum; TBBA waterborne 0.5% w/w, retention 3.87 kg/m^3, 12 weeks): 45.02 (7.20) %
Corrected mean loss in mass (%) (Gloeophyllum trabeum; TBBA waterborne 1.0% w/w, retention 7.73 kg/m^3, 12 weeks): 5.52 (8.99) %
Corrected mean loss in mass (%) (Gloeophyllum trabeum; TBBA waterborne 1.5% w/w, retention 11.75 kg/m^3, 12 weeks): 2.232 (4.66) %
Corrected mean loss in mass (%) (Gloeophyllum trabeum; TBBA waterborne 2.0% w/w, retention 15.62 kg/m^3, 12 weeks): 0.29 (0.25) %
Corrected mean loss in mass (%) (Gloeophyllum trabeum; TBBA waterborne 3.0% w/w, retention 23.02 kg/m^3, 12 weeks): 0.13 (0.26) %
Corrected mean loss in mass (%) (Poria placenta [2]; [4]): 31.70 (9.88) %
Corrected mean loss in mass (%) (Poria placenta [2]; [3]): 30.27 (5.59) %
Corrected mean loss in mass (%) (Poria placenta [2]; TBBA waterborne 1.0% w/w, retention 7.81 kg/m^3, 12 weeks): 9.65 (18.03) %
Corrected mean loss in mass (%) (Poria placenta [2]; TBBA waterborne 1.5% w/w, retention 11.57 kg/m^3, 12 weeks): −0.12 (0.28) %
Corrected mean loss in mass (%) (Poria placenta [2]; TBBA waterborne 2.0% w/w, retention 15.72 kg/m^3, 12 weeks): −0.29 (0.26) %
Corrected mean loss in mass (%) (Poria placenta [2]; TBBA waterborne 3.0% w/w, retention 23.22 kg/m^3, 12 weeks): −0.71 (0.14) %
Instances of Grade No. 10 (count per group) (wood decay): 8-10
